Measurements reported in US9302996B2, “Continuous arycyclic compound” (MITSUBISHI TANABE PHARMA CORPORATION, priority 2010, dated 2016).
Where two headings read alike, the source gives them in different places. Marks after values point to notes of the source that are not given here.

What was measured:
Type in all cases: in vivo
KK-Ay mice = assay: Weight gain-inhibiting action, hypoglycemic effect, insulin in blood plasma lowering action in KK-Ay mice; conditions: male KK-Ay mice, high fat diet, 2 weeks; for inhibition in vivo at 30 mg/kg: Mus musculus, 336 h, 30 mg/kg/day oral
Procedure: To 8 weeks-old male KK-Ay mice were provided high fat diet (Oriental Yeast Co., Ltd, 60 cal % fat), and Test compound suspended in 0.2% carboxymethylcellulose solution was orally administered once a day. Oral administration was continued for 2 weeks, and a weight gain-inhibiting rate of the Test compound was calculated by using a weight gain amount of the solvent control group during the test period as 100%. After final administration, the mice were fasted overnight, and blood was collected from tail vein. Measurement of a blood-sugar level was carried out by using glucose Cα Test Wako (Wako Pure Chemical Industries, Ltd.), and measurement of insulin in blood plasma was carried out by using a mouse insulin measurement kit (Morinaga Institute of Biological Science, Inc.).

ICR mice = assay: Triglyceride (TG) in blood plasma increase-inhibiting action due to lipid administration; conditions: Mus musculus; male ICR mice, 5 mg/kg oral, lipid (Intralipos 20%) after 30 minutes, plasma TG 2 hours after lipid; read-out: Inhibiting rate of TG-increase in blood plasma (5 mg/kg)
Procedure: 6 to 9 weeks-old male ICR mice were fasted overnight, and Test compound suspended in 0.2% carboxymethyl cellulose solution was orally administered to the mice. A lipid (Intralipos 20%, OTSUKA PHARMACEUTICAL CO., LTD., 10 mL/kg) was orally administered after 30 minutes. Blood was collected from tail vein immediately before the lipid administration, and after 2 hours from the same to obtain blood plasma. Measurement of TG in blood plasma was carried out by using a triglyceride E Test Wako (Wako Pure Chemical Industries, Ltd.), and an increased value of TG in blood plasma by administration of the lipid was calculated. An increased value of TG in blood plasma in a solvent control group was used as a control, and an inhibiting rate in increase of TG in blood plasma in the Test compound administered group was calculated.

C57BL/6J mice = assay: Antifeeding activity (high fat diet intake up to 4 hours); conditions: Mus musculus, male C57BL/6J mice, 5 mg/kg oral, food ingested up to 4 hours, read-out: Antifeeding rate (5 mg/kg)
Procedure: 7 to 10 weeks-old male C57BL/6J mice were fasted overnight, and the test compound suspended in 0.2% carboxymethylcellulose solution was orally administered. Immediately after the administration, high fat diet (Oriental Yeast Co., Ltd, 60 cal % fat) was provided and freely fed. An amount of food ingested up to 4 hours was measured, and a lowering rate (an antifeeding rate) of the amount of food ingested in the Test compound administered group was calculated as compared to that of the solvent control group as a control.

[1] = read-out: Hypoglycemic action (30 mg/kg/day)
[2] = read-out: Insulin in blood plasma-lowering action (30 mg/kg/day)
[3] = administration dose of 1 mg/kg/day oral

CC(C)(COc1ccc(-c2ccc(-c3ncc(C(F)(F)F)[nH]3)cn2)cc1)C(=O)O [Example 1-3), 2,2-dimethyl-3-(4-{5-[5-(trifluoromethyl)-1H-imidazol-2-yl]pyridin-2-yl}phenoxy)propanoic acid] was tested, and the inhibition in vivo at 30 mg/kg (KK-Ay mice; [1]) was 43% and the inhibition in vivo at 30 mg/kg (KK-Ay mice; [2]) was 58%.
CC(C)(COc1ccc(-c2ccc(-c3ncc(C(C)(C)C(F)(F)F)[nH]3)cn2)cc1)C(=O)O [Example 2-2), 2,2-dimethyl-3-(4-{5-[5-(2,2,2-trifluoro-1,1-dimethylethyl)-1H-imidazol-2-yl]pyridin-2-yl}phenoxy)propanoic acid] was tested, and the inhibition in vivo at 5 mg/kg (ICR mice) was 76% and the inhibition in vivo at 5 mg/kg (C57BL/6J mice) was 64%.
CC(C)(COc1ccc(-c2ccc(-c3ncc(C(C)(C)C(F)(F)F)[nH]3)cn2)cc1)C(=O)O [Example 2-3), sodium 2,2-dimethyl-3-(4-{5-[5-(2,2,2-trifluoro-1,1-dimethylethyl)-1H-imidazol-2-yl]pyridin-2-yl}phenoxy)propanoate] showed an inhibition in vivo at 30 mg/kg (KK-Ay mice; [1]) of 64%, an inhibition in vivo at 30 mg/kg (KK-Ay mice; [2]) of 62% and an inhibition in vivo at 30 mg/kg (KK-Ay mice; read-out: Weight gain-inhibiting action (30 mg/kg/day)) of 53%.
In the case of Cc1cc(-c2ccc(-c3ncc(C(F)(F)F)[nH]3)cn2)ccc1OCC(C)(C)C(=O)O [Example 8-2), 2,2-dimethyl-3-[2-methyl-4-[5-[5-(trifluoromethyl)-1H-imidazol-2-yl]-2-pyridyl]phenoxy]propanoic acid], the inhibition in vivo at 5 mg/kg (ICR mice) is reported as 46% and the inhibition in vivo at 5 mg/kg (C57BL/6J mice) is reported as 57%.
Cc1cc(OCC(C)(C)C(=O)O)ccc1-c1ccc(-c2ncc(C(F)(F)F)[nH]2)cn1 [Example 9] was tested, and the inhibition in vivo at 5 mg/kg (ICR mice) was 75% and the inhibition in vivo at 5 mg/kg (C57BL/6J mice) was 76%.
For Cc1nc(OCC(C)(C)C(=O)O)ccc1-c1ccc(-c2ncc(C(F)(F)F)[nH]2)cn1 [Example 10], the inhibition in vivo at 5 mg/kg (ICR mice) was 62% and the inhibition in vivo at 5 mg/kg (C57BL/6J mice) was 62%.
For O=C(O)CCCOc1ccc(-c2ccc(-c3ncc(C(F)(F)F)[nH]3)cn2)cc1 [Example 11], the inhibition in vivo at 5 mg/kg (ICR mice) was 31%.
In the case of CC(C)(COc1ccc(-c2ccc(-c3ncc(CC(F)F)[nH]3)cn2)cc1)C(=O)O [Example 12], the inhibition in vivo at 5 mg/kg (ICR mice) is reported as 51% and the inhibition in vivo at 5 mg/kg (C57BL/6J mice) is reported as 40%.
With CC(C)(COc1ccc(-c2ccc(-c3ncc(C(F)(F)F)[nH]3)cn2)cn1)C(=O)O [Example 13-3), 2,2-dimethyl-3-[[5-[5-[4-(trifluoromethyl)-1H-imidazol-2-yl]-2-pyridyl]-2-pyridyl]oxy]propanoic acid] the inhibition in vivo at 5 mg/kg (ICR mice) was 51% and the inhibition in vivo at 5 mg/kg (C57BL/6J mice) was 60%.
For O=C(O)CCCCOc1ccc(-c2ccc(-c3ncc(C(F)(F)F)[nH]3)cn2)cc1 [Example 15], the inhibition in vivo at 5 mg/kg (ICR mice) was 32%.
O=C(O)C1(COc2ccc(-c3ccc(-c4ncc(C(F)(F)F)[nH]4)nc3)cn2)CCCC1 [Example 16] gave an inhibition in vivo at 5 mg/kg (ICR mice) of 74% and an inhibition in vivo at 5 mg/kg (C57BL/6J mice) of 75%.
For O=C(O)C1(COc2ccc(-c3ccc(-c4ncc(C(F)(F)F)[nH]4)cn3)cn2)CCCC1 [Example 17], the inhibition in vivo at 5 mg/kg (ICR mice) was 69% and the inhibition in vivo at 5 mg/kg (C57BL/6J mice) was 82%.
Compound CC(C)(CCOc1ccc(-c2ccc(-c3ncc(C(F)(F)F)[nH]3)cn2)cc1)C(=O)O [Example 18-2), 2,2-dimethyl-4-[4-[5-[5-(trifluoromethyl)-1H-imidazol-2-yl]-2-pyridin]phenoxy]butanoic acid] has an inhibition in vivo at 5 mg/kg (ICR mice) of 69% and an inhibition in vivo at 5 mg/kg (C57BL/6J mice) of 83%.
In the case of CCC(CC)(COc1ccc(-c2ccc(-c3ncc(C(F)(F)F)[nH]3)cn2)cc1)C(=O)O [Example 19-3), 2-ethyl-2-[[4-[5-[4-(trifluoromethyl)-1H-imidazol-2-yl]-2-pyridyl]phenoxy]methyl]butanoic acid], the inhibition in vivo at 5 mg/kg (ICR mice) is reported as 89% and the inhibition in vivo at 5 mg/kg (C57BL/6J mice) is reported as 78%.
Compound O=C(O)C1(COc2ccc(-c3ccc(-c4ncc(C(F)(F)F)[nH]4)cn3)cc2)CCCC1 [Example 20] has an inhibition in vivo at 5 mg/kg (ICR mice) of 74% and an inhibition in vivo at 5 mg/kg (C57BL/6J mice) of 70%.
Work on O=C(O)C1(COc2ccc(-c3ccc(-c4ncc(C(F)(F)F)[nH]4)cn3)cc2)CCOCC1 [Example 21] yielded an inhibition in vivo at 5 mg/kg (ICR mice) of 20%.
With CC(C)(COc1ccc(-c2ccc(-c3ncc(CCC(F)(F)F)[nH]3)cn2)cc1)C(=O)O [Example 24] the inhibition in vivo at 5 mg/kg (ICR mice) was 33%.
For CC(C)CCc1cnc(-c2ccc(-c3ccc(OCC(C)(C)C(=O)O)cc3)nc2)[nH]1 [Example 25], the inhibition in vivo at 5 mg/kg (ICR mice) was 54% and the inhibition in vivo at 5 mg/kg (C57BL/6J mice) was 81%.
With CC(C)(COc1ccc(-c2ccc(-c3ncc(CC4CC4)[nH]3)cn2)cc1)C(=O)O [Example 27] the inhibition in vivo at 5 mg/kg (ICR mice) was 69% and the inhibition in vivo at 5 mg/kg (C57BL/6J mice) was 66%.
CC(C)c1cnc(-c2ccc(-c3ccc(OCC(C)(C)C(=O)O)cc3)nc2)[nH]1 [Example 28] gave an inhibition in vivo at 5 mg/kg (ICR mice) of 59% and an inhibition in vivo at 5 mg/kg (C57BL/6J mice) of 54%.
CCC(CC)c1cnc(-c2ccc(-c3ccc(OCC(C)(C)C(=O)O)cc3)nc2)[nH]1 [Example 29] was tested, and the inhibition in vivo at 5 mg/kg (ICR mice) was 52% and the inhibition in vivo at 5 mg/kg (C57BL/6J mice) was 28%.
In the case of CC(C)(COc1ccc(-c2ccc(-c3ncc(C4CCC(F)(F)CC4)[nH]3)cn2)cc1)C(=O)O [Example 34], the inhibition in vivo at 5 mg/kg (ICR mice) is reported as 19%.
With Cc1cc(OCC(C)(C)C(=O)O)ncc1-c1ccc(-c2ncc(C3(C(F)(F)F)CCC3)[nH]2)nc1 [Example 46] the inhibition in vivo at 5 mg/kg (ICR mice) was 13%.
With CC(C)(COc1cnc(-c2ccc(-c3ncc(C4(C(F)(F)F)CCC4)[nH]3)cc2)cn1)C(=O)O [Example 48] the inhibition in vivo at 5 mg/kg (ICR mice) was 23%.
CC(C)(COc1cnc(-c2ccc(-c3ncc(C(C)(C)C(F)(F)F)[nH]3)cc2)cn1)C(=O)O [Example 50] gave an inhibition in vivo at 5 mg/kg (ICR mice) of 21%.
Compound Cc1cc(OCC(C)(C)C(=O)O)ncc1-c1ccc(-c2ncc(C3(C(F)(F)F)CCC3)[nH]2)c(F)c1 [Example 52] has an inhibition in vivo at 5 mg/kg (ICR mice) of 26%.
In the case of CC(C)(COc1ccc(-c2ccc(-c3ncc(C(C)(C)C(F)(F)F)[nH]3)c(F)c2)cn1)C(=O)O [Example 53], the inhibition in vivo at 5 mg/kg (ICR mice) is reported as 36%.
Compound CC(C)(COc1ccc(-c2ccc(-c3ncc(C4CCC4)[nH]3)cn2)cc1)C(=O)O [Example 55-2), 3-[4-[5-(5-cyclobutyl-1H-imidazol-2-yl)-2-pyridyl]phenoxy]-2,2-dimethylpropanoic acid] has an inhibition in vivo at 5 mg/kg (C57BL/6J mice) of 39%.
For CC(C)(COc1ccc(-c2ccc(-c3ncc(C(C)(C)C)[nH]3)cn2)cc1)C(=O)O [Example 57], the inhibition in vivo at 5 mg/kg (ICR mice) was 43%.
With CC(C)(COc1ccc(-c2ccc(-c3ncc(C(F)(F)F)[nH]3)cn2)c(F)c1F)C(=O)O [Example 75] the inhibition in vivo at 5 mg/kg (ICR mice) was 5%.
For CC(C)(COc1ccc(-c2ccc(-c3ncc(C(F)(F)F)[nH]3)c(F)c2F)cn1)C(=O)O [Example 80], the inhibition in vivo at 5 mg/kg (ICR mice) was 41%.
For CC(C)(COc1ccc(-c2ccc(-c3nc(C(F)(F)F)c[nH]3)cn2)cc1)C(=O)O [Example 94-3), 2,2-dimethyl-3-[4-[5-[4-(trifluoromethyl)-1H-imidazol-2-yl]-2-pyridyl]phenoxy]propanoic acid], the Hypoglycemic action (KK-Ay mice; [3]) was 42%* and the “Insulin in blood plasma-lowering action” value (KK-Ay mice; [3]) was 29%*.
For Cc1cc(OCC2(C(=O)O)CC2)ncc1-c1ccc(-c2ncc(C(F)(F)F)[nH]2)c(Cl)c1 [Example 100-5), 1-{[(5-{3-chloro-4-[5-(trifluoromethyl)-1H-imidazol-2-yl]phenyl}-4-methylpyridin-2-yl)oxy]methyl}cyclopropanecarboxylic acid], the inhibition in vivo at 5 mg/kg (ICR mice) was 60%.
In the case of Cc1cc(OCC(C)(C)C(=O)O)ncc1-c1ccc(-c2ncc(CC(C)C)[nH]2)c(C)c1 [Example 103], the inhibition in vivo at 5 mg/kg (ICR mice) is reported as 8%.
Compound CC(C)(COc1ncc(-c2ccc(-c3ncc(C4(C(F)(F)F)CC4)[nH]3)cc2)cc1F)C(=O)O [Example 111] has an inhibition in vivo at 5 mg/kg (ICR mice) of 41%.
CCC(CC)(COc1cc(C)c(-c2ccc(-c3ncc(C(F)(F)F)[nH]3)nc2)cn1)C(=O)O [Example 127] was tested, and the inhibition in vivo at 5 mg/kg (ICR mice) was 44%.
In the case of COc1cc(-c2cnc(OCC(C)(C)C(=O)O)cc2C)ccc1-c1ncc(C(F)(F)F)[nH]1 [Example 129], the inhibition in vivo at 5 mg/kg (ICR mice) is reported as 16%.
For Cc1cc(OCC(C)(C)C(=O)O)ncc1-c1ccc(-c2ncc(C(F)(F)F)[nH]2)c(C2CC2)c1 [Example 131], the inhibition in vivo at 5 mg/kg (ICR mice) was 57%.
Work on Cc1cc(OCC2(C(=O)O)CC2)ncc1-c1cnc(-c2ncc(C(F)(F)F)[nH]2)c(Cl)c1 [Example 139] yielded an inhibition in vivo at 5 mg/kg (ICR mice) of 52%.
For CC(C)(COc1ncc(-c2ccc(-c3ncc(C4(C(F)(F)F)CCC4)[nH]3)cc2)cc1F)C(=O)O [Example 144], the inhibition in vivo at 5 mg/kg (ICR mice) was 7%.
Cc1cc(-c2cnc(OCC(C)(C)C(=O)O)nc2)ccc1-c1ncc(C(F)(F)F)[nH]1 [Example 145] gave an inhibition in vivo at 5 mg/kg (ICR mice) of 43%.
